Experimental data: patent publication US8642651B2, “Methods and compositions for improved chromium complexes” (VDF Futureceuticals, Inc., priority 2004, dated 2014)
Values joined by “and” are separate entries in the source; they are usually repeats but may differ in a detail not shown here. Equal values may be shown once.

Experiments:
L6 muscle cells = assay: Total glucose uptake in L6 muscle cells (2-NBDG fluorescence); format: cell-based; details: 2 hrs treatment
Method: Total glucose uptake was measure using fluorescent analog of glucose, 2-NBDG (2-(N-(7-nitrobenz-2-oxa-1,3-diazol-4-yl)amino)-2-deoxyglucose) from Molecular Probes Inc. L6 myoblastic cells were treated for 2 hrs with tested compounds in culture medium SkBM from Clonetics. After washing, cells were transferred to HBSA (Hepes-buffered Saline), pH 7.0 with 50 mcM of 2-NBDG without glucose. One minute later, cells were washed with ice-cold PBS, and fixed in −20 C 70% ethanol. Fluorescence was measured at 480/530 (excitation/emission).

[1] = system: Streptozocin-induced insulin deficient rats; assay: Fasted blood glucose in streptozocin-induced insulin deficient rats, chromium compounds in drinking water for four weeks; format: in vivo; details: for Fasted Blood Glucose (fold increase over four weeks): drinking water, about 42 μg/kg, four hrs fasting
Method: In vivo experiments gave much more dramatic differences, which are summarized in Table 1 below in which the increase in fasting blood glucose was measured after four weeks as compared to untreated animals: Streptozocin-induced insulin deficient rats were used to evaluate the insulin potentiating activity of several compounds. […] As consequence, these rats develop severe hyperglycemia. So far, certain known chromium compounds were known to potentiate action of insulin, however, the actual mechanism was not clearly understood. […] In our studies in vivo, chromium compounds were provided in drinking water for four weeks at a concentration of about 42 μg/kg. Vein blood was collected following four hrs fasting and used for fasted blood glucose level test. The study results for two tests are given below in Table 3 in which the increase in blood glucose in given as a fold increase over four weeks.

Row | Compound | Fold over Control, Average (L6 muscle cells; Conc. 10 nM) | Fold over Control, Average (L6 muscle cells; Conc. 100 nM) | Fold over Control, Average (L6 muscle cells; Conc. 1000 nM) | Fasted Blood Glucose (fold increase over four weeks) ([1]; STUDY 1) | other results
1 | O.O.O.O.O.O.[Cl][Cr]([Cl])[Cl] [CrCl3, CrCl3 hexahydrate, reference compound] | 1.55 fold | 2.05 fold | 2.08 fold | 1.32 fold | –
2 | CN(C)C(=N)N=C(N)N [Metformin, reference compound] | – | – | – | 0.96 fold | –
3 | Chromium-mono-Aminooxyacetate [CROA-1] | 1.72 fold | 2.36 fold | 2.39 fold | – | Fold over Control (single values) (L6 muscle cells; Conc. 10 nM): 1.41 fold and 1.66 fold and 2.10 fold; Fold over Control (single values) (L6 muscle cells; Conc. 100 nM): 2.12 fold and 2.16 fold and 2.80 fold; Fold over Control (single values) (L6 muscle cells; Conc. 1000 nM): 2.58 fold and 2.10 fold and 2.50 fold
4 | chromium niacin [CrNiacin, reference compound] | – | – | – | 1.91 fold | –
5 | chromium picolinate [Cr-picolinate, reference compound] | – | – | – | 2.02 fold | Fasted Blood Glucose (fold increase over four weeks) ([1]; STUDY 2): 2.37 fold; BLOOD GLUCOSE INCREASE (% of untreated) ([1]; diabetic rats, after four weeks, untreated = 100%): 95.56%; BLOOD GLUCOSE INCREASE ([1]; diabetic rats, increase in fasting blood glucose after four weeks): 2.37
